Results as given in PMC6379368, “Extracellular and intracellular small-molecule galectin-3 inhibitors” (Scientific Reports, 2019).
“And” between values parts separate entries of the source, which are not always exact repeats. Equal entries are not always repeated. Where two headings read alike, the source gives them in different places. Where a SMILES comes first, the peptide text is derived from it. The star is where a group is joined. βNA = c1ccc2cc(N*)ccc2c1

Tests used:
galectin-3 [1] = biological target: T1, galectin-3 (Homo sapiens, UniProt P17931); assay: GPN-induced galectin-3 accumulation (puncta) in JIMT-1 breast cancer cells; type: cell-based; parameters: In the intracellular assay, in contrast, only endogenous galectin was present; endogenous in cells; host or cells: JIMT-1 breast cancer cells
T1 sequence (P17931 whole entry): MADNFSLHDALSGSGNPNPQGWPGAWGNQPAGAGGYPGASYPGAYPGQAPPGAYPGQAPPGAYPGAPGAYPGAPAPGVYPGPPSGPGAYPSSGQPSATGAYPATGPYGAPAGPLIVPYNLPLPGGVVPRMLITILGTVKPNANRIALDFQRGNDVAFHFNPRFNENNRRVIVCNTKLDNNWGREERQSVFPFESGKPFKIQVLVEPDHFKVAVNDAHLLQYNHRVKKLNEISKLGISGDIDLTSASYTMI
Experimental: The total number of galectin-3 puncta and nuclei in the microscopy images were quantified using the software ImageJ.
Cells were seeded in multi-well plates with sterile glass coverslips placed in each well and allowed to adhere to the cell culture surface for at least 24 hours. Then the cells were pre-treated with the different galectin-3 inhibitors at different concentrations (or DMSO as control) for 15 minutes or 24 hours followed by addition of the lysosomal damaging peptide GPN[42] and incubated another 13 minutes, with the inhibitors still present. The 13-minute incubation with GPN and 15-minute pre-incubation with inhibitors were done in DMEM/Ham’s F12 medium with 15 mM HEPES buffer (without serum), whereas the 24-hour incubation with inhibitors were performed in fully supplemented DMEM/Ham’s F12 medium (as described under Cell culture).
After treatment with GPN, the cells were fixed in 3.7% (v/v) formaldehyde in phosphate-buffered saline (PBS) for 15 minutes, permeabilized and blocked using 1% (v/v) TWEEN 20 and 5% (w/v) BSA in PBS for 30 minutes, then incubated with primary and secondary antibodies for one hour each (washed with PBS in between). Primary and secondary antibodies for galectin-3 staining were a rat anti-mouse galectin-3 IgG antibody[50],[51] […] All antibodies were diluted in 0.05% TWEEN 20 and 5% BSA in PBS. […] The coverslips were mounted on glass slides using Mowiol® 4–88 and left at 8 °C overnight before further examination. For imaging of the cells, a LSM-510 confocal laser scanning microscope (Carl Zeiss Microscopy GmbH, Oberkochen, Germany), equipped with a Hamamatsu R6357 photomultiplier (Hamamatsu Photonics K.K., Hamamatsu, Japan), was used. […] Maximum intensity projections of each picture obtained were analyzed with ImageJ 1.47 v (Rasband, W.S., ImageJ, U. S. National Institutes of Health, Bethesda, Maryland, USA) to quantify the number of galectin-3 dots and the number of nuclei in each picture. The quantification of particles (i.e. galectin-3 puncta/nucleus) was carried out using batch processing in the software, where a single macro (including parameters such as image thresholds, particle size and circularity) was used for all images obtained from a single experiment, this to reduce user bias and time consumption.

[2] = Caco-2 permeability assay; settings: human, Caco-2, pH 7.4
galectin-3 [3] = biological target: T1, galectin-3; assay: Inhibition of fluorescein-tagged galectin-3 binding to the cell surface of CHO cells (flow cytometry); type: cell-based; parameters: made in house; host or cells: E. coli BL21 Star (DE3); settings: 0.5 µM fluorescein-tagged galectin-3, 4 °C, 1 hour
obese mice = tested on: obese mice; parameters: method as in PMID 27814523; settings: type 2 diabetes study; cited from earlier work
MCF-7 cells = assay: MTT cell viability assay, MCF-7; type: cell-based; settings: MCF-7, 72 hours, 0.04–40 µM for 1 and 2, 0.04–20 µM for 3
Experimental: (§1) The MTT (3-[4,5-dimethylthiazol-2-yl]−2,5-diphenyltetrazolium bromide) assays were performed as previously described. […] The cells were incubated for 24 hours before addition of galectin-3 inhibitors. The inhibitors were diluted in PBS from their respective stock solution in DMSO (see Galectin-3 inhibitors) and used at final concentrations ranging from 0.04 to 40 μM. DMSO was adjusted to make the final DMSO concentration 0.2% for all inhibitor concentrations, including the control sample (no inhibitor). After 72 hours of treatment, 20 μl of 5 mg/ml MTT solution (in PBS) was added to each well and incubation continued for 1 hour at 37 °C. Thereafter, the MTT containing medium was removed and 100 μl of DMSO was added per well and the plates swirled gently for 10 minutes to dissolve the cells and the purple formazan product precipitate. Absorbance was monitored at 540 nm using a Labsystems iEMS Reader MF (Labsystems Oy, Helsinki, Finland) and the software DeltaSoft II v.4.14 (Biometallics Inc., Princeton, NJ, USA).

galectin-3 [4] = biological target: T1, galectin-3; assay: Fluorescence anisotropy (FA) competitive assay, affinity for galectin-3; type: binding; parameters: made in house; host or cells: E. coli BL21 Star (DE3)
Text: A FA assay was used to determine the affinity of recombinant human galectin-3 and the three inhibitors in solution. The use of the FA assay for this purpose has previously been described in detail by Sörme et al.[49]. In short, increasing concentrations of galectins were first titered against a fixed concentration of the fluorescent saccharide probe 3,3′-dideoxy-3-[4-(fluorescein-5-yl-carbonylaminomethyl)-1H-1,2,3-triazol-1-yl]−3′-[4-(3-fluorophenyl)-1H-1,2,3-triazol-1-yl]-1,1′-sulfanediyl-di-β-D-galactopyranoside (4 nM) (described in Peterson et al.[28]), to obtain binding curves in which the anisotropy value increases from a value for probe free in solution (A0) to a value where all probe molecules are bound to galectin-3 (Amax). Binding curves were constructed for each test condition used in this study (i.e. different buffer, temperature and pH, see below) (Fig. S4). To establish the dissociation constant (Kd) values between the inhibitors and galectin-3, a competitive variant of the FA assay was utilized. In this study, increasing concentrations of the inhibitors were titered against fixed concentrations of galectin-3 and probe. By measuring the anisotropy values for the different inhibitor concentrations, together with the values for Amax and A0, the Kd values could be calculated according to the equations presented in Sörme et al.[49].
The experiments were either performed in PBS (pH 7.2), in 50 mM phosphate buffer with 100 mM NaCl (pH 6, 7, or 8), or in 50 mM acetate buffer with 100 mM NaCl (pH 5). All buffers were supplemented with 0.1 µM BSA (to not lose any protein due to absorbance to plate surfaces). For the experiments performed in PBS (pH 7.2), a concentration of 20 nM galectin-3 was used (at room temperature and 4 °C). For the experiments done in phosphate/acetate buffer, galectin-3 was used at concentrations of 400 nM (pH 5), 100 nM (pH 6), or 50 nM (pH 7 and 8).
The emitted light from the fluorescent saccharide probes was measured using a PheraStarFS plate reader and PHERAstar Mars version 2.10 R3 software (BMG, Offenburg, Germany). […] The anisotropy values for each data point were read in duplicate wells of 96-well plates (at a total volume of 140 µl) 30 minutes after the addition of all solutions (for equilibrium to arise).

HCC1937 cells = assay: MTT cell viability assay, HCC1937; type: cell-based; settings: HCC1937, 72 hours, 0.04–40 µM for 1 and 2, 0.04–20 µM for 3
Experimental: as §1

JIMT-1 cells = assay: MTT cell viability assay, JIMT-1; type: cell-based; settings: JIMT-1, 72 hours, 0.04–40 µM for 1 and 2, 0.04–20 µM for 3
Experimental: as §1

galectin-1 = tested on: galectin-1; parameters: method as in Delaine et al., Salameh et al., Peterson et al.; settings: lower compared to galectin-3; ref Delaine et al., Salameh et al., Peterson et al.; cited from earlier work

| SMILES | mean number of galectin-3 puncta/nucleus (galectin-3 [1]; JIMT-1 cells, 0.3 mM GPN for 13 minutes, n = 92) | Papp A→B [2] [×10⁻⁶ cm/s] | Papp B→A [2] [×10⁻⁶ cm/s] | IC50 (galectin-3 [3]) [nM] | inhibition of galectin-3 accumulation (extent) (galectin-3 [1]; 15 minutes pre-treatment, high concentrations 50–100 µM) | inhibition of galectin-3 accumulation (extent) (galectin-3 [1]; 24 hours pre-treatment, up to 10 µM) | IC50 (galectin-3 [1]; JIMT-1 cells, 15 minutes pre-incubation, read-out: IC50, inhibition of GPN-induced galectin-3 accumulation) [nM] | glucose tolerance (obese mice) | insulin resistance (obese mice) | cell viability (MTT) (MCF-7 cells) | Kd (galectin-3 [4]; as in Fig. 1b, restated in legend of Fig. S1, read-out: Kd value for galectin-3) [nM] | Kd (galectin-3 [4]; galectin-3 CRD, FA assay, PBS pH 7.2, room temperature, read-out: Kd value for galectin-3) | Kd (galectin-3 [4]; pH 5, acetate buffer with NaCl, read-out: Kd value for galectin-3 at pH 5) [nM] | fold lower affinity for galectin-3 compared to 1 (galectin-3 [4]; ratio of Kd values) [fold] | cell viability (MTT) (HCC1937 cells) | cell viability (MTT) (JIMT-1 cells) | affinity for galectin-1 (galectin-1) |
| --- | --- | --- | --- | --- | --- | --- | --- | --- | --- | --- | --- | --- | --- | --- | --- | --- | --- |
| NCC(=O)N[C@@H](Cc1ccccc1)C(=O)Nc1ccc2ccccc2c1 [GPN, glycyl-L-phenylalanine 2-naphthylamide, reference compound] (H-Gly-Phe-βNA) | 4.81 ± 0.23 | – | – | – | – | – | – | – | – | – | – | – | – | – | – | – | – |
| OC[C@H]1O[C@H](Sc2ccc(Cl)c(Cl)c2)[C@H](O)[C@@H](n2cc(-c3cc(F)c(F)c(F)c3)nn2)[C@H]1O [compound 2] | – | 14.7 | 16.2 | – | – | – | – | – | – | – | – | – | – | – | – | – | – |
| CCCCNC(=O)c1cn(C2C(O)C(CO)OC(SC3OC(CO)C(O)C(n4cc(C(=O)NCCCC)nn4)C3O)C2O)nn1 (stereo not shown) [compound 3] | – | < 0.3 | < 0.07 | 10000 | complete inhibition of galectin-3 accumulation could not be reached | poor inhibitor of galectin-3 accumulation | ~10000 | improved glucose tolerance | decreased insulin resistance | no apparent change in cell viability | 35.8 | 36 nM and 35.8 nM | 778 | > 10 | no apparent change in cell viability | no apparent change in cell viability | high affinity |
